Data taken from US20110117026A1, “METHODS AND COMPOSITIONS FOR THE DELIVERY OF BIOACTIVE COMPOUNDS” (priority 2008, published 2011).
One block for each molecule: values may come before it. Non-standard residues stand in square brackets, D forms with d. Residues, ends and D or L forms follow the SMILES beside them. No end group written: not given here. pY = N[C@@H](Cc1ccc(OP(=O)(O)O)cc1)C(=O)O

What was measured:
[1] = system: H460 cells; assay: Inhibition of H460 cell growth; type: cell-based, human; details: EV peptide 5 μM
Experimental: H460 cells were treated with the EV peptide (5 μM) formulated in LPH-PEG-AA, LPH-PEG, or as a free peptide.
(§1) The effect of the delivered EV peptide on the growth of H460 cells was then investigated.

[2] = system: H460 cells; assay: Apoptosis of H460 cells by flow cytometry (annexin V, propidium iodide); type: cell-based, human; details: 48 hours after treatment
Experimental: Cells were stained with propidium iodide (PI) and Annexin V-FITC at 48 hours after treatment with a PEGylated LPH with AA or without AA.
as §1

[3] = system: H460 cells; assay: Uptake of Alexa488 EV peptide by H460 cells; type: cell-based, human; details: Alexa488-labeled EV peptide, 4 h
Experimental: After treating H460 cells for four hours with an Alexa488 conjugated EV peptide formulated in LPH, PEG-LPH, or PEG-AA-LPH, cells were washed, treated with Triton X-100, and the fluorescence of the cell extract was determined with a fluorometer.
The uptake of the peptide by H460 cells was first studied in vitro. The EV peptide was fluorescently labeled with Alexa488 at the N-terminal α-NH2 group, purified by gel filtration, and formulated in the nanoparticles. […] Free EV peptide was not taken up by H460 cells at all.

[4] = target: T1, STAT5b phosphorylation by EGFR (Homo sapiens, UniProt P51692); assay: Cell-free inhibition of STAT5b phosphorylation in H460 cell lysate (Western blot); type: biochemical
T1 construct: In a cell-free system containing the lysate of H460 cells treated with EGF; endogenous in cells; host or cells: H460 cell lysate (cells treated with EGF)
T1 sequence (P51692 1-787): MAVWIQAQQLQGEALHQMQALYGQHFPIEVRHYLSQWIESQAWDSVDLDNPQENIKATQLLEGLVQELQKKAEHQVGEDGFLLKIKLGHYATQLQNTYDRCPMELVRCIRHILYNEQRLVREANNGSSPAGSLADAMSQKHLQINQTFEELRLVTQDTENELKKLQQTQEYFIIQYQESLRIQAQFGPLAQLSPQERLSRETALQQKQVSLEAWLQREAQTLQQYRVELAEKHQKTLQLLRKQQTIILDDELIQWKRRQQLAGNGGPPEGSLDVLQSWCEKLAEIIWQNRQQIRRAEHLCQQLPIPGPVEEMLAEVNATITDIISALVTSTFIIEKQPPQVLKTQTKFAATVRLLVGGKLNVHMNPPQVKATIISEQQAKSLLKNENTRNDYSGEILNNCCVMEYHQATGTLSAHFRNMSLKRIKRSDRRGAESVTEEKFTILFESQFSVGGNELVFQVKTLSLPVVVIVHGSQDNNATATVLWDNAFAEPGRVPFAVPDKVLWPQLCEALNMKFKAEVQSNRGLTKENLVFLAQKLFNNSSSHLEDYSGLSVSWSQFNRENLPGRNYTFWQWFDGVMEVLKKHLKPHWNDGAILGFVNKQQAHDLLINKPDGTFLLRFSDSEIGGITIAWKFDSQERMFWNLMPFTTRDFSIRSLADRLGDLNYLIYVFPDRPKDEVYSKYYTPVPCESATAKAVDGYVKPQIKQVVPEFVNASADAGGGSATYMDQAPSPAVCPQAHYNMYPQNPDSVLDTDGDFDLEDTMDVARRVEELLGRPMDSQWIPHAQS
Experimental: FIGS. 20A and 20B show the inhibition of STAT5b phosphorylation by the EV peptide (SEQ ID NO: 3) in a tumor cell lysate. Increasing amounts of EV peptide was added to the assay mixture containing H460 cell lysate. The degree of STAT5b phosphorylation was detected by Western blot (FIG. 20A) using a phosphorylated STAT5b specific monoclonal antibody. The data was analyzed by Image J software to obtain the IC50 (FIG. 20B).
Studies were initiated by selecting a highly anionic peptide that can block an important intracellular signaling event. The phosphorylation and activation of the signal transducer and activator of transcription 5b (STAT5b) by the epidermal growth factor receptor (EGFR) tyrosine kinase was chosen as the targeted signaling event. STAT proteins are cytoplasmic proteins that function as secondary messengers and transcription factors. The STAT proteins have a phosphotyrosine binding domain of src-homology 2 (SH2). The potential of the SH2 domain to interact with a number of signaling proteins allow the STATs to interfere with multiple cell signaling pathways (Mohamad and Mohammad (2006) JK-Practitioner 13(4):215-221). STAT activation has been implicated in human cancer cells, including the activation of upstream receptor tyrosine kinases, such as the EGFR, as well as nonreceptor kinases. […]

[5] = target: T2, recombinant caspase 3 (Homo sapiens, UniProt P42574); assay: Cleavage of imaging peptide by caspase 3 (Cy5.5/Cy7 FRET, nanofluorometer); type: biochemical
T2 sequence (P42574 29-175 limits assumed): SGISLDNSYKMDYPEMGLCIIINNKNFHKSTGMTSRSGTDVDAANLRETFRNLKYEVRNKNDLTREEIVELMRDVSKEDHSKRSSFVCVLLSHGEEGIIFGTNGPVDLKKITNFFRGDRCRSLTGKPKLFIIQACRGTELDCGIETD
T2 sequence (P42574 176-277 limits assumed): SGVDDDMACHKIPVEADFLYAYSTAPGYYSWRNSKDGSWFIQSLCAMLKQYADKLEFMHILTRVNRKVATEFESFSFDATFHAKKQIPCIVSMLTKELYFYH
Experimental: The fluorescence emission profiles of untreated peptide (FIG. 27A), peptide treated with 60 units of caspase-3 for 2 hours (FIG. 27B), peptide treated with 0.1 mg BSA (FIG. 27C), and peptide treated with 60 units caspase-3 that was pre-incubated with 10 μM caspase-3 inhibitor for one hour (FIG. 27D) were measured with a nanofluorometer.
The fluorescence spectrum of the peptide was recorded with a nanofluorometer which only requires a 2 μL sample volume.

[6] = target: T3, STAT5b (Homo sapiens, UniProt P51692); assay: STAT5b phosphorylation in intact H460 cells (ELISA); type: cell-based; details: 3.4 μM peptide, 24 h
T3 construct: endogenous in cells; host or cells: H460 cells
T3 sequence (P51692 1-787): T1 sequence (P51692 1-787)
Experimental: FIG. 22 provides a graph depicting the inhibition of STAT5b phosphorylation by the EV peptide. At 24 hours after treating H460 cells with LPH, LPH-PEG or LPH-PEG-AA comprising the EV (SEQ ID NO: 3) or EE (SEQ ID NO: 4) peptide or the free peptide at 3.4 μM, the reduction of phosphorylated Stat5b was assayed with an ELISA.
Next, the pharmacodynamics of the EV peptide was studied in vitro.

Molecule: CC(C)C[C@H](NC(=O)[C@H](CCC(=O)O)NC(=O)[C@H](Cc1ccccc1)NC(=O)[C@H](Cc1ccc(OP(=O)(O)O)cc1)NC(=O)[C@H](CCC(=O)O)NC(=O)[C@H](CCC(=O)O)NC(=O)[C@H](CCC(=O)O)NC(=O)[C@@H](N)CCC(=O)O)C(=O)N[C@H](C(=O)O)C(C)C [EV peptide, EEEE(pY)FELV] (H-EEEE[pY]FELV-OH; C-terminus assumed)
effect on growth of H460 cells [1]: no effect | apoptosis, in words [2]: without any effect | uptake by H460 cells [3]: not taken up | IC50 [4]: 2500 nM

ratio of Cy5.5/Cy7 ([5]; after incubation with recombinant caspase 3 (60 units, 2 hours)): 2.70 | ratio of Cy5.5/Cy7 ([5]; intact (untreated) peptide): 1.74
Molecule: Ac-KDEVDCDEVDKDEVDC (also: Cy5.5 on Cys, Cy7 on Lys) [imaging peptide, caspase 3 FRET reporter]

effect on STAT5b phosphorylation, in words [6]: did not show any significant effect
Molecule: E(pY)ELFEEVE (E[pY]ELFEEVE) [EE peptide, reference compound]
